Source: PubChem BioAssay AID248 (DTP/NCI, 2004)
“And” between values parts separate entries of the source, which are not always exact repeats. Identical values can stand only once. Inconclusive results and toxic doses are left out. Rule as the data show it: active = T/C of 150% or more; inactive = T/C below 125%.

Tested on: L1210 leukemia ip in BDF1 mice, survival T/C
Assay: NCI In Vivo Anticancer Drug Screen. Data for tumor model L1210 Leukemia (intraperitoneal) in B6D2F1 (BDF1) mice
Conditions: endpoint: mean survival time, higher = longer survival
How it was run: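 Value reflects the ratio of survival in compound-treated mice to survival in vehicle-treated controls, with both groups carrying the same transplanted tumor.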

[1] = dose: 100.0 mg/kg/injection, schedule: Q04DX003 (ip), vehicle: saline with Tween-80
[2] = dose: 200.0 mg/kg/injection, schedule: Q01DX009 (ip), vehicle: saline with Tween-80
[3] = dose: 200.0 mg/kg/injection, schedule: Q04DX003 (ip), vehicle: saline with Tween-80
[4] = dose: 400.0 mg/kg/injection, schedule: Q01DX009 (ip), vehicle: saline with Tween-80
[5] = dose: 400.0 mg/kg/injection, schedule: Q04DX003 (ip), vehicle: saline with Tween-80
[6] = dose: 100.0 mg/kg/injection, schedule: Q01DX009 (ip), vehicle: Klucel (hydroxypropylcellulose) (HPC)
[7] = dose: 100.0 mg/kg/injection, schedule: Q04DX002 (ip), vehicle: Klucel (hydroxypropylcellulose) (HPC)
[8] = dose: 200.0 mg/kg/injection, schedule: Q01DX009 (ip), vehicle: Klucel (hydroxypropylcellulose) (HPC)
[9] = dose: 200.0 mg/kg/injection, schedule: Q04DX002 (ip), vehicle: Klucel (hydroxypropylcellulose) (HPC)
[10] = dose: 400.0 mg/kg/injection, schedule: Q01DX009 (ip), vehicle: Klucel (hydroxypropylcellulose) (HPC)
[11] = dose: 400.0 mg/kg/injection, schedule: Q04DX002 (ip), vehicle: Klucel (hydroxypropylcellulose) (HPC)
[12] = dose: 75.0 mg/kg/injection, schedule: Q01DX001 (ip), vehicle: carboxymethylcellulose (CMC)
[13] = dose: 200.0 mg/kg/injection, schedule: Q01DX001 (ip), vehicle: carboxymethylcellulose (CMC)
[14] = dose: 100.0 mg/kg/injection, schedule: Q01DX001 (ip), vehicle: carboxymethylcellulose (CMC)
[15] = dose: 400.0 mg/kg/injection, schedule: Q01DX001 (ip), vehicle: carboxymethylcellulose (CMC)
[16] = dose: 100.0 mg/kg/injection, schedule: Q01DX001 (ip), vehicle: saline with Tween-80
[17] = dose: 200.0 mg/kg/injection, schedule: Q01DX001 (ip), vehicle: saline with Tween-80
[18] = dose: 400.0 mg/kg/injection, schedule: Q01DX001 (ip), vehicle: saline with Tween-80

Measured: T/C

CC(=O)Nc1ccc(S(=O)(=O)Nc2ccc([N+](=O)[O-])cc2)cc1
inactive: dose: 25.0 mg/kg/injection, schedule: Q01DX009 (ip), vehicle: saline with Tween-80 96 % of control | dose: 50.0 mg/kg/injection, schedule: Q01DX009 (ip), vehicle: saline with Tween-80 100 % of control | dose: 100.0 mg/kg/injection, schedule: Q01DX009 (ip), vehicle: saline with Tween-80 98 % of control and 87 % of control | [1] 109 % of control | [2] 95 % of control and 94 % of control | [3] 109 % of control | [4] 97 % of control and 94 % of control | [5] 109 % of control

CC(C)OC(=O)N1CCN(C(=O)OC(C)C)CC1
inactive: [6] 97 % of control | [7] 93 % of control | [8] 94 % of control | [9] 93 % of control | [10] 102 % of control | [11] 117 % of control

NC(N)=N/N=C/c1ccc(Cl)cc1Cl
inactive: dose: 30.0 mg/kg/injection, schedule: Q01DX010 (oral), vehicle: saline 102 % of control | dose: 44.0 mg/kg/injection, schedule: Q01DX010 (oral), vehicle: saline 100 % of control | dose: 50.0 mg/kg/injection, schedule: Q01DX001 (ip), vehicle: saline 100 % of control | dose: 63.0 mg/kg/injection, schedule: Q01DX Z (ip), vehicle: saline 101 % of control | dose: 66.0 mg/kg/injection, schedule: Q01DX010 (oral), vehicle: saline 104 % of control | dose: 99.0 mg/kg/injection, schedule: Q01DX010 (oral), vehicle: saline 98 % of control | dose: 100.0 mg/kg/injection, schedule: Q01DX001 (ip), vehicle: saline 106 % of control | dose: 200.0 mg/kg/injection, schedule: Q01DX001 (ip), vehicle: saline 108 % of control

ClC(Cl)(Cl)c1ccc(C(SCc2ccccc2)SCc2ccccc2)cc1
inactive: [1] 86 % of control | [3] 89 % of control | [5] 86 % of control

N#CCCNC=O
inactive: dose: 100.0 mg/kg/injection, schedule: Q04DX002 (ip), vehicle: saline 109 % of control | dose: 200.0 mg/kg/injection, schedule: Q04DX002 (ip), vehicle: saline 98 % of control | dose: 400.0 mg/kg/injection, schedule: Q04DX002 (ip), vehicle: saline 109 % of control

CC(=O)OC1CC(OC2C(O)CC(OC3C(O)CC(OC4CCC5(C)C(CCC6C5CCC5(C)C(C7=CC(=O)OC7)CCC65O)C4)OC3C)OC2C)OC(C)C1OC1OC(CO)C(O)C(O)C1O (stereo unspecified)
inactive: dose: 10.0 mg/kg/injection, schedule: Q01DX001 (ip), vehicle: saline 101 % of control

CC(NC(=O)NCCCl)C1CC1 (stereo unspecified)
inactive: dose: 100.0 mg/kg/injection, schedule: Q01DX001 (ip), vehicle: Klucel (hydroxypropylcellulose) (HPC) 106 % of control | dose: 100.0 mg/kg/injection, schedule: Q04DX003 (ip), vehicle: Klucel (hydroxypropylcellulose) (HPC) 97 % of control | dose: 200.0 mg/kg/injection, schedule: Q01DX001 (ip), vehicle: Klucel (hydroxypropylcellulose) (HPC) 103 % of control | dose: 200.0 mg/kg/injection, schedule: Q04DX003 (ip), vehicle: Klucel (hydroxypropylcellulose) (HPC) 100 % of control | dose: 400.0 mg/kg/injection, schedule: Q01DX001 (ip), vehicle: Klucel (hydroxypropylcellulose) (HPC) 103 % of control | dose: 400.0 mg/kg/injection, schedule: Q04DX003 (ip), vehicle: Klucel (hydroxypropylcellulose) (HPC) 90 % of control

CC1C(=O)Nc2ccccc2N1C(=O)CN1CCCC1 (stereo unspecified)
inactive: dose: 50.0 mg/kg/injection, schedule: Q01DX009 (ip), vehicle: saline 98 % of control | dose: 100.0 mg/kg/injection, schedule: Q01DX009 (ip), vehicle: saline 101 % of control | dose: 100.0 mg/kg/injection, schedule: Q04DX003 (ip), vehicle: saline 96 % of control | dose: 200.0 mg/kg/injection, schedule: Q01DX009 (ip), vehicle: saline 106 % of control | dose: 200.0 mg/kg/injection, schedule: Q04DX003 (ip), vehicle: saline 96 % of control | dose: 400.0 mg/kg/injection, schedule: Q04DX003 (ip), vehicle: saline 94 % of control

CC1(C)C2CCC1(C)C(NC(=O)N(CCCl)N=O)C2 (stereo unspecified)
inactive: dose: 4.0 mg/kg/injection, schedule: Q01DX001 (ip), vehicle: carboxymethylcellulose (CMC) 98 % of control | dose: 9.0 mg/kg/injection, schedule: Q01DX001 (ip), vehicle: carboxymethylcellulose (CMC) 96 % of control | dose: 18.0 mg/kg/injection, schedule: Q01DX001 (ip), vehicle: carboxymethylcellulose (CMC) 102 % of control | dose: 37.0 mg/kg/injection, schedule: Q01DX001 (ip), vehicle: carboxymethylcellulose (CMC) 112 % of control | [12] 104 % of control | dose: 150.0 mg/kg/injection, schedule: Q01DX001 (ip), vehicle: carboxymethylcellulose (CMC) 106 % of control | [13] 115 % of control | dose: 500.0 mg/kg/injection, schedule: Q01DX001 (ip), vehicle: carboxymethylcellulose (CMC) 115 % of control | dose: 1000.0 mg/kg/injection, schedule: Q01DX001 (ip), vehicle: carboxymethylcellulose (CMC) 121 % of control

Cc1ccc(Br)c([N+](=O)[O-])c1
inactive: dose: 22.2 mg/kg/injection, schedule: Q01DX001 (ip), vehicle: carboxymethylcellulose (CMC) 93 % of control | dose: 33.35 mg/kg/injection, schedule: Q01DX001 (ip), vehicle: carboxymethylcellulose (CMC) 93 % of control | dose: 50.0 mg/kg/injection, schedule: Q01DX001 (ip), vehicle: carboxymethylcellulose (CMC) 93 % of control | [12] 110 % of control | [14] 109 % of control | [13] 115 % of control | [15] 107 % of control

CCN(CC)C(=O)OC/C=C\CC(Cl)(Cl)Cl
inactive: dose: 50.0 mg/kg/injection, schedule: Q01DX009 (ip), vehicle: saline sonified 97 % of control | dose: 100.0 mg/kg/injection, schedule: Q01DX009 (ip), vehicle: saline sonified 111 % of control | dose: 100.0 mg/kg/injection, schedule: Q04DX003 (ip), vehicle: saline sonified 106 % of control | dose: 200.0 mg/kg/injection, schedule: Q01DX009 (ip), vehicle: saline sonified 94 % of control | dose: 200.0 mg/kg/injection, schedule: Q04DX003 (ip), vehicle: saline sonified 106 % of control | dose: 400.0 mg/kg/injection, schedule: Q04DX003 (ip), vehicle: saline sonified 106 % of control

O=C1C(Br)=C(c2ccccc2)C(=O)C(Br)=C1c1ccccc1
inactive: [14] 90 % of control | [13] 92 % of control | [15] 97 % of control

COc1cc([N+](=O)[O-])ccc1NC(=O)Nc1cc(Cl)c(Cl)cc1C
inactive: [6] 94 % of control | [8] 105 % of control | [10] 91 % of control

O=C1c2cc([N+](=O)[O-])ccc2-c2cc(Cl)ccc21
inactive: [1] 97 % of control | [3] 97 % of control | [5] 97 % of control

Cc1cccnc1NC(=S)Nc1cccc(C(F)(F)F)c1
inactive: [7] 95 % of control | [9] 95 % of control | [11] 92 % of control

Cc1n[nH]c(=S)[nH]c1=S
inactive: [1] 97 % of control

CCCCCCn1c2ccccc2c2cc3cnccc3c(C)c21
inactive: dose: 37.5 mg/kg/injection, schedule: Q04DX003 (ip), vehicle: Klucel (hydroxypropylcellulose) (HPC) 97 % of control | dose: 75.0 mg/kg/injection, schedule: Q04DX003 (ip), vehicle: Klucel (hydroxypropylcellulose) (HPC) 97 % of control | dose: 150.0 mg/kg/injection, schedule: Q04DX003 (ip), vehicle: Klucel (hydroxypropylcellulose) (HPC) 102 % of control | dose: 300.0 mg/kg/injection, schedule: Q04DX003 (ip), vehicle: Klucel (hydroxypropylcellulose) (HPC) 104 % of control

CCOC(=O)C1=C(C)C(C)C(=O)NC1=O (stereo unspecified)
inactive: [16] 100 % of control | [17] 101 % of control | [2] 110 % of control | [18] 96 % of control | [4] 96 % of control

COc1ccc2c(c1)c(-n1cc([N+](=O)[O-])nc1C)c(C)n2C(=O)c1ccc(Cl)cc1
inactive: dose: 50.0 mg/kg/injection, schedule: Q01DX009 (ip), vehicle: Klucel (hydroxypropylcellulose) (HPC) 97 % of control | [6] 97 % of control | [8] 93 % of control

Cc1c(/C=N/N(CCO)CCO)[nH]c(=O)[nH]c1=O
inactive: [16] 103 % of control | [17] 103 % of control | [18] 98 % of control
